Like-named read-outs stand apart in the source and are kept apart here.
Experiments:
[1] = molecular target: T1, JAK1 (Homo sapiens, UniProt P23458); experiment: Biochemical JAK1 kinase assay (LanthaScreen); conditions: for Ki: read-out: JAK 1 (pKi) (converted)
T1 construct: GST; purchased Life Technologies
How it was run: (§1)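 TR-FRET readout (520/495 nm) using Tb-labelled pTyr701 antibody after EDTA stop, following 1 h ATP-started phosphorylation of GFP-STAT1 by recombinant GST-JAK. Compounds preincubated 1 h with enzyme and substrate; pIC50 from 4-parameter fit, Cheng-Prusoff gives pKi.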

[2] = molecular target: T2, JAK2 (Homo sapiens, UniProt O60674); experiment: Biochemical JAK2 kinase assay (LanthaScreen); conditions: for Ki: read-out: JAK 2 (pKi) (converted)
T2 construct: GST; purchased Life Technologies
How it was run: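 pKi values derive from pIC50 via Cheng-Prusoff, with IC50 from a 4-parameter fit of percent-inhibition TR-FRET data using Tb-anti-pSTAT1 (pTyr701) detection. Compound, GST-JAK2 and GFP-STAT1 substrate were pre-incubated 1 h, then ATP started a 1 h ambient reaction (HEPES pH 7.5, 10 mM MgCl2, 1% DMSO).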

[3] = molecular target: T3, Tyk2 (Homo sapiens, UniProt P29597); experiment: Biochemical Tyk2 kinase assay (LanthaScreen); conditions: for Ki: read-out: Tyk 2 (pKi) (converted)
T3 construct: GST; purchased Life Technologies
How it was run: as §1

[4] = test system: IL-2 stimulated pSTAT5 in Tall-1 T cells; experiment: Cellular JAK3 potency assay: inhibition of IL-2 stimulated pSTAT5 in Tall-1 T cells; assay type: cell-based, human; conditions: for IC50: Homo sapiens, read-out: Tall-1 (pIC50) (converted)
How it was run: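 Inhibition of IL-2-induced pSTAT5 was quantified by AlphaLisa in Tall-1 cell lysates. Compound exposure lasted 1 h before 30 min stimulation with 300 ng/ml IL-2 final.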

[5] = molecular target: T4, JAK3 (Homo sapiens, UniProt P52333); experiment: Biochemical JAK3 kinase assay (LanthaScreen); parameters: GST; purchased Life Technologies; conditions: for Ki: read-out: JAK 3 (pKi) (converted)
T4 sequence (P52333 1-1124): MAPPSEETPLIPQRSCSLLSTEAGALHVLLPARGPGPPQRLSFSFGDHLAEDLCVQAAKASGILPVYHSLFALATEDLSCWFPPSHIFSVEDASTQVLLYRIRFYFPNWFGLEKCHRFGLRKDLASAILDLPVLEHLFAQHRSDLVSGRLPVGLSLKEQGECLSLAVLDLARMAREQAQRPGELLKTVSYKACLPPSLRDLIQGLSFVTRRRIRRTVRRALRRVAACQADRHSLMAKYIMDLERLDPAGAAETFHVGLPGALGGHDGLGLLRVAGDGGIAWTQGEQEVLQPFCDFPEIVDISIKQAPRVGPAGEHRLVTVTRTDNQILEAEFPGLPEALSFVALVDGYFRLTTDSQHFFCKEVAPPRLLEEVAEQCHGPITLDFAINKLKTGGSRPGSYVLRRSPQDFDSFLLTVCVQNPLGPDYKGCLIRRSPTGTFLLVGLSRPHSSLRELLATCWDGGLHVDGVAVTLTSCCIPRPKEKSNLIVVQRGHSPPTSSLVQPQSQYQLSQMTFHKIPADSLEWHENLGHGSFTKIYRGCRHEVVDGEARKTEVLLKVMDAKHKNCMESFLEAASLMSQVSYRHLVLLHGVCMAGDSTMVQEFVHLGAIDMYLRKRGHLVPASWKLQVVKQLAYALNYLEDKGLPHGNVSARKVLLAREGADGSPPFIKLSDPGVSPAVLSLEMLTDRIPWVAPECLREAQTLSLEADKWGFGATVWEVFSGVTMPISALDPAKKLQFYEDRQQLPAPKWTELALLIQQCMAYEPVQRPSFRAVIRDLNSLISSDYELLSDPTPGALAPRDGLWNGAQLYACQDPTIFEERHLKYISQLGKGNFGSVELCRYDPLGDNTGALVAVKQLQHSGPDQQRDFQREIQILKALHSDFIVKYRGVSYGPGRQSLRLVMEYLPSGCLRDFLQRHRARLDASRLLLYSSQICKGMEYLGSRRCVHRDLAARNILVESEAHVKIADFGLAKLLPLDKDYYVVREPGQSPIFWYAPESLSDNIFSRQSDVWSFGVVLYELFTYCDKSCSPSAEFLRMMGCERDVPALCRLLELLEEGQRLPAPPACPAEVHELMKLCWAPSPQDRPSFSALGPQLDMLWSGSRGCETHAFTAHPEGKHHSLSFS
How it was run: as §1

[6] = IL-2 stimulated pSTAT5, Tall-1 T cells
[7] = selectivity JAK3 over JAK1, difference of pKi
[8] = TALL-1, IL-2 stimulated pSTAT5, Tall-1 T cells
[9] = TALL-1, IL-2 stimulated pSTAT5 in Tall-1 T cells
[10] = selectivity: difference of pKi JAK3 and pKi JAK1
[11] = IL-2 stimulated pSTAT5 in Tall-1 T cells

T3 sequence (P29597 whole entry): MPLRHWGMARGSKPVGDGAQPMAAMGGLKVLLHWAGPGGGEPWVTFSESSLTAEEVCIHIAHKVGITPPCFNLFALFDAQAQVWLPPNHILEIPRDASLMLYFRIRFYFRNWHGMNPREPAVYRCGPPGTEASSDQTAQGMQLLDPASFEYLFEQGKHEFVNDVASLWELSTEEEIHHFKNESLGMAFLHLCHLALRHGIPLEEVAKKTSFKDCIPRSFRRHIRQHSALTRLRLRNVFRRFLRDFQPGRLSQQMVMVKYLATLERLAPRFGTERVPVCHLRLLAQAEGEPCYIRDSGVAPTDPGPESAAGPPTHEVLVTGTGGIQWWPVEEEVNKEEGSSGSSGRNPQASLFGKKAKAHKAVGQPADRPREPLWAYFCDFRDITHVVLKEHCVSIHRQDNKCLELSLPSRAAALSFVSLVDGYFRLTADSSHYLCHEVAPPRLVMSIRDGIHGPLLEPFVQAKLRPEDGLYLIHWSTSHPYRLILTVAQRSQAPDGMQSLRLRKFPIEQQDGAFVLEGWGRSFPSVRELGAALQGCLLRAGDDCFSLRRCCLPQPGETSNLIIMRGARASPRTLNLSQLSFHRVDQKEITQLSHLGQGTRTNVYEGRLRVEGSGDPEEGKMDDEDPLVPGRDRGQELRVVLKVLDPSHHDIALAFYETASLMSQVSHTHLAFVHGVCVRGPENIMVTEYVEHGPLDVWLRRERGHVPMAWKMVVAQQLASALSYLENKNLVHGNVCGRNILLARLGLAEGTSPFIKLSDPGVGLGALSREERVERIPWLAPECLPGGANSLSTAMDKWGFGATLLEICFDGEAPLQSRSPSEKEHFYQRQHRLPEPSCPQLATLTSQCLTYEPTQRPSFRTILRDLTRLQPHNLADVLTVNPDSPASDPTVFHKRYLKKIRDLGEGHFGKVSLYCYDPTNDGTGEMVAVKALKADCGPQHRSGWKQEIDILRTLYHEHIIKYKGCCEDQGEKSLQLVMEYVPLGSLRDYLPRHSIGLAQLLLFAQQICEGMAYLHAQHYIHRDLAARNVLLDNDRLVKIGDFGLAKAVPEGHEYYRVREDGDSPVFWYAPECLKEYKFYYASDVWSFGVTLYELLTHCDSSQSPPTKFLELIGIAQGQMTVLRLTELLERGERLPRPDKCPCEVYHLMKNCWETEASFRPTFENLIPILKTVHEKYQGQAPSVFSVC
T1 sequence (P23458 whole entry): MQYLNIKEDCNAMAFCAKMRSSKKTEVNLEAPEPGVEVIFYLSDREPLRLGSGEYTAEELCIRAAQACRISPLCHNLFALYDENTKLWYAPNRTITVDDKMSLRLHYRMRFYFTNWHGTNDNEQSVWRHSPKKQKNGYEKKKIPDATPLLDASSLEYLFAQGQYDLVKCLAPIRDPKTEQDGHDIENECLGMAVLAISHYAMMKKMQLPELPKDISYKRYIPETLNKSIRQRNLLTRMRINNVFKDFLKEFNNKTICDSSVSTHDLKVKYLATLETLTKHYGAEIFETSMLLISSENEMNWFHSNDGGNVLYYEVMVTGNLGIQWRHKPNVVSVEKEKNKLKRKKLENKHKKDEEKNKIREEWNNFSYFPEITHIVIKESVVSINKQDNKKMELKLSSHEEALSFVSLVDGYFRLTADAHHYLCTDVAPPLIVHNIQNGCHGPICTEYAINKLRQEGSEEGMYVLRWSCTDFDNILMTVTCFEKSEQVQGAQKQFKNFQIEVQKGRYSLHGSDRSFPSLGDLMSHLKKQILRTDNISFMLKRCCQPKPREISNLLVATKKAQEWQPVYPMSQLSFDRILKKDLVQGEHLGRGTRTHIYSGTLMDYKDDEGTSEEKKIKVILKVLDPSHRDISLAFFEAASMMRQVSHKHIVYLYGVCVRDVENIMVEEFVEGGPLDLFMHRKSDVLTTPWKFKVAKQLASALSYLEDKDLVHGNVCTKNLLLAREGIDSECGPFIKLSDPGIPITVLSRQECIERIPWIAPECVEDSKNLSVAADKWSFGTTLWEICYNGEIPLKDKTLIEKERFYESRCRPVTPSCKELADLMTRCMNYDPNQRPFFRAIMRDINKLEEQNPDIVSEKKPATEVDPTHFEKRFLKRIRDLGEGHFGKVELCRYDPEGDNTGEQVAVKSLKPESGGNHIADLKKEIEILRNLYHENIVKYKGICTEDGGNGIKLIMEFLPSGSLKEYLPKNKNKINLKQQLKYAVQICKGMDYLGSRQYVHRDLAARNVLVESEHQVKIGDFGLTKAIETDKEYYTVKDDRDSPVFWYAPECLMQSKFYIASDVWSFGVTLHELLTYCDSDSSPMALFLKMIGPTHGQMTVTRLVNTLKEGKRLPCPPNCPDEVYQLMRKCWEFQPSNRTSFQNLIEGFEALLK
T2 sequence (O60674 whole entry): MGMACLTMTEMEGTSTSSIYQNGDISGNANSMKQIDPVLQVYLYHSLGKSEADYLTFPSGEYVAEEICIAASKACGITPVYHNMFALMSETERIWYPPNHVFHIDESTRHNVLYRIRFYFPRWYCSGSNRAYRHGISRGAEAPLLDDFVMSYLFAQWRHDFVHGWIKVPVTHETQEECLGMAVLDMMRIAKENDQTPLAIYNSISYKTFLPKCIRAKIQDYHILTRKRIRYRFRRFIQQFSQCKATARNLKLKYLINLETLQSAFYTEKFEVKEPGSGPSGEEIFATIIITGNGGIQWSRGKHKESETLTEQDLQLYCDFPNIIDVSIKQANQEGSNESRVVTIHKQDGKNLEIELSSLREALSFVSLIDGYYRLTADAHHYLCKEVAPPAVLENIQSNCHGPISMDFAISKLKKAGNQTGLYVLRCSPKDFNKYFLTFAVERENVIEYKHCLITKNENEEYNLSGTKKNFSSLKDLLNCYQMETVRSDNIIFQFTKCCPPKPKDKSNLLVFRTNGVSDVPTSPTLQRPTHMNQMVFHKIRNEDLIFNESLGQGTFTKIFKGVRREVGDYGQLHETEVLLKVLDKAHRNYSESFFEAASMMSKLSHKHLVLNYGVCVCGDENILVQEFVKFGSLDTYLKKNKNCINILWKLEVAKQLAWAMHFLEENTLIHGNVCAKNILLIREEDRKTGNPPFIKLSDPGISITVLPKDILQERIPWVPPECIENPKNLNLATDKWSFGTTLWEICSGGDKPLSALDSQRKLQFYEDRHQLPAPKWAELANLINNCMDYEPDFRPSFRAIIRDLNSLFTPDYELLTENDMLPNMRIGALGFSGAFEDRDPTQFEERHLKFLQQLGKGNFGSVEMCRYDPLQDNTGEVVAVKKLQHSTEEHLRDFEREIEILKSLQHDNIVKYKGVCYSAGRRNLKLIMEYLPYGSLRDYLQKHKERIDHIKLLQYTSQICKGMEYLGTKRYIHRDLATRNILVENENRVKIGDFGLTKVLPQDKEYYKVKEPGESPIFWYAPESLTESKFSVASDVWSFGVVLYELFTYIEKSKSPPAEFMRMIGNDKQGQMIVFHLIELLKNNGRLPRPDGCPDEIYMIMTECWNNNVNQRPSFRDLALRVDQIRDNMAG

## C=CC(=O)N1C2CCC1CC(Oc1cc(-c3ccc(O)c(F)c3)cc3[nH]ncc13)C2 (stereo not drawn) [Compound 9-4]
[1]
  JAK 1 (pKi): E (a pKi value of 7 or below (Ki of 100 nM or above))
[2]
  JAK 2 (pKi): C (a pKi value between 8 and 9 (Ki between 10 nM and 1 nM))
[3]
  Tyk 2 (pKi): E (a pKi value of 7 or below (Ki of 100 nM or above))
[4]; [6]
  Tall-1 (pIC50): A (a pIC50 value≥7.5 (IC50≤32 nM))
[5]
  JAK 3 (pKi): A (a pKi value≥10 (Ki≤0.1 nM))
[5]; [7]
  JAK3 (pKi)-JAK1 (pKi): A (a value of 3 or above)

## CN(C)C/C=C/C(=O)N1CCC(C)(Nc2cc(-c3ccc(O)c(Cl)c3)cc3[nH]ncc23)CC1 [Compound 7-8]
[1]
  JAK 1 (pKi): E (a pKi value of 7 or below (Ki of 100 nM or above))
[2]
  JAK 2 (pKi): E (a pKi value of 7 or below (Ki of 100 nM or above))
[3]
  Tyk 2 (pKi): E (a pKi value of 7 or below (Ki of 100 nM or above))
[4]; [6]
  Tall-1 (pIC50): B (a pIC50 value between 6.7 (included) and 7.5 (IC50 between 200 nM and 32 nM))
[5]
  JAK 3 (pKi): A (a pKi value≥10 (Ki≤0.1 nM))
[5]; [7]
  JAK3 (pKi)-JAK1 (pKi): A (a value of 3 or above)

## C=CC(=O)N1CCS[C@@H](C(=O)Nc2cc(-c3ccc(O)cc3)cc3[nH]ncc23)C1 [Compound 12-44]
[1]
  Ki: > 100 nM
[2]
  Ki: 10 to 100 nM
[3]
  Ki: > 100 nM
[4]; [8]
  IC50: 31.6 to 200 nM
[5]
  Ki: < 0.1 nM
[5]; [7]
  JAK3 (pKi)-JAK1 (pKi): A (a value of 3 or above)

## C=CC(=O)N1CC(F)(COc2nc(-c3ccc(O)c(Cl)c3)cc3[nH]ncc23)C1 [Compound 3-47]
[1]
  Ki: > 100 nM
[2]
  Ki: 10 to 100 nM
[3]
  Ki: > 100 nM
[4]; [9]
  IC50: < 31.6 nM
[5]
  Ki: 0.1 to 1 nM
[5]; [10]
  JAK3 (pKi)-JAK1 (pKi): B (a value of 2.3 to 3)

## C=CC(=O)N1C2CCC1CC(Oc1cc(-c3ccc(O)c(Cl)c3)cc3[nH]ncc13)C2 (stereo not drawn) [Compound 10-4]
[1]
  JAK 1 (pKi): E (a pKi value of 7 or below (Ki of 100 nM or above))
[2]
  JAK 2 (pKi): D (a pKi value between 7 and 8 (Ki between 100 nM and 10 nM))
[3]
  Tyk 2 (pKi): E (a pKi value of 7 or below (Ki of 100 nM or above))
[4]; [6]
  Tall-1 (pIC50): B (a pIC50 value between 6.7 (included) and 7.5 (IC50 between 200 nM and 32 nM))
[5]
  JAK 3 (pKi): B (a pKi value between 9 and 10 (Ki between 1 nM and 0.1 nM))
[5]; [7]
  JAK3 (pKi)-JAK1 (pKi): A (a value of 3 or above)

## COC1CCCN(C/C=C/C(=O)N2CC(COc3cc(-c4ccc(O)cc4)cc4[nH]ncc34)C2)C1 (stereo not drawn) [Compound 3-128]
[1]
  Ki: > 100 nM
[2]
  Ki: 0.1 to 1 nM
[3]
  Ki: > 100 nM
[4]; [9]
  IC50: 31.6 to 200 nM
[5]
  Ki: < 0.1 nM
[5]; [10]
  JAK3 (pKi)-JAK1 (pKi): A (a value of 3 or above)

## CSC1CCN(C/C=C/C(=O)N2CC(COc3cc(-c4ccc(O)cc4)cc4[nH]ncc34)C2)CC1 [Compound 3-131]
[1]
  Ki: > 100 nM
[2]
  Ki: 0.1 to 1 nM
[3]
  Ki: > 100 nM
[4]; [9]
  IC50: < 31.6 nM
[5]
  Ki: 0.1 to 1 nM
[5]; [10]
  JAK3 (pKi)-JAK1 (pKi): B (a value of 2.3 to 3)

## C=CC(=O)N1CCSC(C(=O)Nc2cc(-c3ccc(O)cc3)cc3[nH]ncc23)C1 (stereo not drawn) [Compound 12-42]
[1]
  Ki: > 100 nM
[2]
  Ki: 10 to 100 nM
[3]
  Ki: > 100 nM
[4]; [8]
  IC50: 31.6 to 200 nM
[5]
  Ki: 0.1 to 1 nM
[5]; [7]
  JAK3 (pKi)-JAK1 (pKi): B (a value of 2.3 to 3)

## C=CC(=O)N1CC(OCc2cc(-c3ccc(O)cc3)cc3[nH]ncc23)C1 [Compound 12-39]
[1]
  Ki: > 100 nM
[2]
  Ki: > 100 nM
[3]
  Ki: > 100 nM
[4]; [8]
  IC50: < 31.6 nM
[5]
  Ki: 0.1 to 1 nM
[5]; [7]
  JAK3 (pKi)-JAK1 (pKi): A (a value of 3 or above)

## C=CC(=O)N1CC(COc2nc(-c3ccc(O)c(F)c3)cc3[nH]ncc23)C1 [Compound 3-37]
[1]
  Ki: > 100 nM
[2]
  Ki: 10 to 100 nM
[3]
  Ki: > 100 nM
[4]; [9]
  IC50: < 31.6 nM
[5]
  Ki: < 0.1 nM
[5]; [10]
  JAK3 (pKi)-JAK1 (pKi): A (a value of 3 or above)

## C=CC(=O)N1CC[C@H](COc2nc(-c3ccc(O)c(Cl)c3)nc3[nH]ncc23)C1 [Compound 2-11]
[1]
  JAK 1 (pKi): E (a pKi value of 7 or below (Ki of 100 nM or above))
[2]
  JAK 2 (pKi): E (a pKi value of 7 or below (Ki of 100 nM or above))
[3]
  Tyk 2 (pKi): E (a pKi value of 7 or below (Ki of 100 nM or above))
[4]; [11]
  Tall-1 (pIC50): B (a pIC50 value between 6.7 (included) and 7.5 (IC50 between 200 nM and 32 nM))
[5]
  JAK 3 (pKi): B (a pKi value between 9 and 10 (Ki between 1 nM and 0.1 nM))
[5]; [10]
  JAK3 (pKi)-JAK1 (pKi): A (a value of 3 or above)

## C=CC(=O)N1CC(COc2cc(-c3ccc(O)c(Cl)c3)cc3[nH]ncc23)(OC)C1 [Compound 3-73]
[1]
  JAK 1 (pKi): E (a pKi value of 7 or below (Ki of 100 nM or above))
[2]
  JAK 2 (pKi): E (a pKi value of 7 or below (Ki of 100 nM or above))
[3]
  Tyk 2 (pKi): E (a pKi value of 7 or below (Ki of 100 nM or above))
[4]; [11]
  Tall-1 (pIC50): A (a pIC50 value≥7.5 (IC50≤32 nM))
[5]
  JAK 3 (pKi): A (a pKi value≥10 (Ki≤0.1 nM))
[5]; [10]
  JAK3 (pKi)-JAK1 (pKi): A (a value of 3 or above)

## C=CC(=O)N1CC[C@H](S(=O)(=O)c2cc(-c3ccc(O)cc3)cc3[nH]ncc23)C1 [Compound 13]
[1]
  Ki: > 100 nM
[2]
  Ki: > 100 nM
[3]
  Ki: > 100 nM
[4]; [9]
  IC50: 31.6 to 200 nM
[5]
  Ki: < 0.1 nM
[5]; [10]
  JAK3 (pKi)-JAK1 (pKi): A (a value of 3 or above)

## C=CC(=O)N1C[C@@H](Oc2cc(-c3ccc(O)cc3)cc3[nH]ncc23)C[C@H]1C [Compound 1-11]
[1]
  Ki: > 100 nM
[2]
  Ki: > 100 nM
[3]
  Ki: > 100 nM
[4]; [9]
  IC50: < 31.6 nM
[5]
  Ki: < 0.1 nM
[5]; [10]
  JAK3 (pKi)-JAK1 (pKi): A (a value of 3 or above)

## CN(C)C/C=C/C(=O)N1CC(C#N)(COc2nc(-c3ccc(O)cc3)cc3[nH]ncc23)C1 [Compound 3-102]
[1]
  Ki: > 100 nM
[2]
  Ki: > 100 nM
[3]
  Ki: > 100 nM
[4]; [9]
  IC50: 31.6 to 200 nM
[5]
  Ki: 0.1 to 1 nM
[5]; [10]
  JAK3 (pKi)-JAK1 (pKi): A (a value of 3 or above)

From patent US10392368B2, “Pyrazolo and triazolo bicyclic compounds as JAK kinase inhibitors” (THERAVANCE BIOPHARMA R&D IP, LLC, priority 2017, dated 2019)
